Experimental findings from US8257931B2 (President and Fellows of Harvard College, priority 2005, dated 2012) are described below.

One assay concerns the target eIF4E (Mus musculus, UniProt P63073). Kind of assay: FP assay competing with fluorogenic eIF4G-derived peptide (KRYDREFLLGF). The format is binding. As to conditions: relative to hit compound 1. How it is done:
The values indicate the average concentration needed to inhibit 50% of cell proliferation. […] A dual luciferase reporter mRNA was translated for 90 minutes at 30° C. in RedNova reticulocyte lysate (Novagen) in the presence of increasing concentrations of the compound. […] (purple) activity was measured and normalized against an untreated control reaction. The m^7GDP and emetine were used as the positive and negative controls, respectively.
Displacement of Nα-fluorescein tagged eIF4G-derived peptide by a competing ligand causes a large decrease in fluorescence polarization. The non-tagged version of the same eIF4G-derived peptide and DMSO were used as positive and negative control, respectively.

The next assay deals with A549 and HT29 cell lines. Briefly: Alamar Blue growth inhibition, statements covering both A549 and HT29. The format is cell-based, human. The settings on record: for GI50: Homo sapiens, HT29 or A549, at least one, read-out: GI50 in at least one cell line. The protocol: Adherent human solid tumor cells were plated and maintained for 3 days in the presence of increasing concentration of the compounds, and cell proliferation was measured by alamar blue assay, where 10% of commercially available solution is added to the cell medium and measure fluorescence in 96-well plates at wavelength of 530 nm excitation and 590 nm emission. The data calculations were carried out as previously described.
Compounds were further tested for cell growth inhibition in a human lung cancer cell line (A549) and conlon cancer cell line (HT29). The Alamar Blue assay, which specifically measures the inhibition of cell proliferation, was used to assess the GI50's of the compounds.
In general terms: Resazurin is reduced to fluorescent resorufin, in cell work by metabolically active cells.

A further assay deals with T1, eIF4E/eIF4G interaction (Mus musculus, UniProt P63073).
T1 construct: made in house; host or cells: E. coli
T1 sequence (P63073 whole entry): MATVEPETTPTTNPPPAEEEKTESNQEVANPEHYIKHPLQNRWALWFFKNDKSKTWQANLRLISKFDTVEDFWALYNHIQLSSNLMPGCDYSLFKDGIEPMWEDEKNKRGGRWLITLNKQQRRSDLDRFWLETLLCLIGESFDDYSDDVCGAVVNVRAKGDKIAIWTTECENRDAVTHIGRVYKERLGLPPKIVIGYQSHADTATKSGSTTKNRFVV
Kind of assay: Fluorescence polarization assay: binding of fluorescein-labeled eIF4G peptide to eIF4E. Details: species or system murine. The settings on record: for IC50: triplicate, SD<±10%, read-out: IC50 (μM) (4E/4G FP). How it is done:
We adapted this assay to a microwell plate format and used it to screen the 16,000 compound Chembridge DiverSet E library. […] For screening and subsequent peptide binding assays measurements of fluorescence polarization were made using an LJL Analyst plate reader. For the screening assay a solution containing approximately 5 μM meIF4E, 60 nM labeled peptide, 0.05% bovine γ-globulin, and 2 mM DTT in a buffer composed of 50 mM sodium phosphate and 50 mM potassium chloride at pH 6.5 was used. […] The curve fitting for estimation of binding constants used equations derived by Roehrl et al.^22 Measurements of fluorescence polarization and anisotropy were made in black 384-well plates (Corning) using an Analyst plate reader (LJL Biosystems) Compounds were transferred to plates during the screening using a custom-built Seiko pin transfer robot at the Institute for Chemistry and Cell Biology (ICCB) at Harvard Medical School.
A fluorescence polarization (FP) assay was developed to measure binding of a peptide containing the conserved eIF4E-binding motif to eIF4E.
The assay was adapted to a microwell plate format and used to screen a number of libraries comprised of small molecule libraries for potential eIF4E/eIF4G interaction inhibitors.

Another assay relates to A549 lung cancer cells. Kind of assay: A549 proliferation, sulforhodamine B (SRB) assay. The settings on record: sulforhodamine B assay, triplicate. In kind it is cell-based, human. How it is done: FIG. 28 is a graph showing the results of a cell proliferation assay. A549 cells, which are human lung cancer cells, are grown in plates for five days in medium containing 5% FCS and compound. The number of cells is quantified by staining with sulforhodamine B.

Setting [1] is: Homo sapiens, A549, Table 1 of b280.
Setting [2] is: Homo sapiens, A549, Table 1 of b347.

Read-outs that look alike come from different tables or passages of the source.

Sequence of eIF4E (P63073 whole entry): as above

For `O=C(O)C(Cc1ccccc1[N+](=O)[O-])=NNc1nc(-c2ccccc2)cs1` [4a], the “binding affinity / potency in FP assay compared with hit compound 1” value on eIF4E is “dramatic decrease”. In addition, the “growth inhibition of both cell lines compared with hit compound 1” value in the assay on A549 and HT29 cell lines (HT29 and A549) was “dramatic decrease”.

By GI50 is commonly meant the concentration that inhibits growth by half. Turning to `O=C(O)C(Cc1ccccc1[N+](=O)[O-])=NNc1nc(-c2ccc3ccccc3c2)cs1` [4c, 2-[(4-Naphthalen-2-yl-thiazol-2-yl)-hydrazono]-3-(2-nitro-phenyl)-propionic acid], in the assay with A549 and HT29 cell lines, the GI50 is less than 10 µM.

For the compound `O=C(O)C(Cc1ccccc1[N+](=O)[O-])=NNc1nc(-c2ccc3c(c2)OCCO3)cs1` [4d, 2-{[4-(2,3-Dihydro-benzo[1,4]dioxin-6-yl)-thiazol-2-yl]-hydrazono}-3-(2-nitro-phenyl)-propionic acid], the “binding affinity / potency in FP assay compared with hit compound 1” value at eIF4E is given as “more than 2 fold”. In the assay with A549 and HT29 cell lines, the GI50 is less than 10 µM.

For `O=C(O)C(Cc1ccccc1[N+](=O)[O-])=NNc1nc(-c2ccc(-c3ccccc3)cc2)cs1` [4f, 2-[(4-Biphenyl-4-yl-thiazol-2-yl)-hydrazono]-3-(2-nitro-phenyl)-propionic acid], the 50% growth inhibitory concentration (GI50) with A549 and HT29 cell lines is less than 10 µM.

On to `O=C(O)C(Cc1ccccc1[N+](=O)[O-])=NNc1nc(-c2ccc(N=Nc3ccccc3)cc2)cs1` [4j], for which the “binding affinity / potency in FP assay compared with hit compound 1” value at eIF4E was roughly 3 fold.

For the compound `O=C(O)/C(Cc1ccccc1)=N/Nc1nc(-c2ccccc2)c(-c2ccccc2)s1` [Z-10, 2-[(4,5-Diphenyl-thiazol-2-yl)-hydrazono]-3-phenyl-propionic acid], the IC50 on eIF4E/eIF4G interaction (Table 1 of b280) and on eIF4E/eIF4G interaction (Table 1 of b347) was 50 µM throughout. For the same compound, the “potency compared with its E isomer” value on eIF4E/eIF4G interaction (eIF4E/4G assay) was “two-fold more potent”. In addition, the “potency compared with the initial hit” value on eIF4E/eIF4G interaction (eIF4E/4G assay) was “one order of magnitude more potent”. Further, the GI50 with A549 lung cancer cells (setting [1]) and in the assay with A549 lung cancer cells (setting [2]) was 1 µM throughout.

Take `O=C(O)/C(Cc1ccccc1)=N/Nc1nc2ccccc2s1` [Z-11, 2-(Benzothiazol-2-yl-hydrazono)-3-phenyl-propionic acid]: the IC50 at eIF4E/eIF4G interaction (Table 1 of b280) and on eIF4E/eIF4G interaction (Table 1 of b347) was greater than 600 µM throughout. The GI50 is greater than 20 µM in the assay with A549 lung cancer cells (Table 1) and greater than 20 µM in the assay on A549 lung cancer cells (Table 1, listed as Z-4p).

With `COC(=O)/C(Cc1ccccc1)=N/Nc1nc(-c2ccccc2)cs1` [Z-13, 3-Phenyl-2-[(4-phenyl-thiazol-2-yl)-hydrazono]-propionic acid methyl ester], the IC50 on eIF4E/eIF4G interaction (Table 1 of b280) and on eIF4E/eIF4G interaction (Table 1 of b347) was greater than 600 µM each time. The GI50 in the assay with A549 lung cancer cells (setting [1]) and with A549 lung cancer cells (setting [2]) was 11 µM each time.

`OC/C(Cc1ccccc1)=N/Nc1nc(-c2ccccc2)cs1` [Z-15, 3-Phenyl-2-[(4-phenyl-thiazol-2-yl)-hydrazono]-propan-1-ol]: the IC50 on eIF4E/eIF4G interaction (Table 1 of b280) and at eIF4E/eIF4G interaction (Table 1 of b347) was greater than 600 µM in each case. In addition, the GI50 in the assay with A549 lung cancer cells (setting [1]) and in the assay on A549 lung cancer cells (setting [2]) was 14 µM in each case.

`O=C(O)/C(Cc1ccccc1)=N\Nc1nnc(-c2ccccc2)s1` [Z-16, 3-Phenyl-2-[(5-phenyl-[1,3,4]thiadiazol-2-yl)-hydrazono]-propionic acid]: the IC50 on eIF4E/eIF4G interaction (Table 1 of b280) and at eIF4E/eIF4G interaction (Table 1 of b347) was greater than 600 µM each time. In addition, the GI50 in the assay with A549 lung cancer cells (setting [1]) and in the assay on A549 lung cancer cells (setting [2]) was greater than 10 µM throughout.

As to `O=C(O)/C(Cc1ccccc1)=N/Nc1ccc(-c2ccccc2)nn1` [Z-17, 3-Phenyl-2-[(6-phenyl-pyridazin-3-yl)-hydrazono]-propionic acid], on eIF4E/eIF4G interaction (Table 1 of b280), the IC50 was greater than 600 µM. In the assay with A549 lung cancer cells (setting [1]), this compound yielded a GI50 greater than 10 µM.

As for `O=C(O)/C(Cc1ccccc1)=N/NC(=S)NCc1ccccc1` [compound 8], the IC50 at eIF4E/eIF4G interaction (Table 1 of b280) and at eIF4E/eIF4G interaction (Table 1 of b347) was 550 µM throughout. Further, the GI50 in the assay on A549 lung cancer cells (setting [1]) and in the assay on A549 lung cancer cells (setting [2]) was greater than 10 µM each time.

Take `O=C(Cc1ccccc1)NNc1nc(-c2ccccc2)cs1` [compound 12]: on eIF4E/eIF4G interaction (Table 1 of b347), the IC50 is greater than 600 µM. In addition, the GI50 in the assay on A549 lung cancer cells (setting [2]) is greater than 20 µM.

Regarding `O=[N+]([O-])c1ccccc1CC(CO)NNc1nc(-c2ccc(Cl)c(Cl)c2)cs1` (stereo not drawn) [compound 14, 2-{N′-[4-(3,4-Dichloro-phenyl)-thiazol-2-yl]-hydrazino}-3-(2-nitro-phenyl)-propan-1-ol], on eIF4E/eIF4G interaction (Table 1 of b347), the IC50 was greater than 600 µM. This compound also came in with a GI50 in the assay on A549 lung cancer cells (setting [2]) of 4 µM.
